Laboratory results reported in the supplement of paper PMC10307832.

Tests used:
Experiment in all cases: relative viability (nuclei count vs DMSO), 5 days (fraction); higher = more cells survive
VX-11e + Phenformin = compound: CC1=CN=C(N=C1C2=CNC(=C2)C(=O)N[C@H](CO)C3=CC(=CC=C3)Cl)NC4=C(C=C(C=C4)F)Cl [VX-11e] + N=C(N)NC(=N)NCCc1ccccc1 [Phenformin] (partner 250 µM)
Method in brief: (§1)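 Lung cancer cell lines, seeded in 1536-well plates, were treated the following day by pin tool with a single drug or with five library-drug doses (not always all listed) in √10 steps on top of a fixed anchor-drug dose. Cells were fixed and nuclei stained in one step after 5 days, and nuclei were counted. Relative viability is the nuclei count for treated wells divided by that for vehicle wells, reported as medians of duplicate plates.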

VX-11e + AZD7762 = compound: CC1=CN=C(N=C1C2=CNC(=C2)C(=O)N[C@H](CO)C3=CC(=CC=C3)Cl)NC4=C(C=C(C=C4)F)Cl [VX-11e] + NC(=O)Nc1cc(-c2cccc(F)c2)sc1C(=O)N[C@H]1CCCNC1 [AZD7762] (partner 0.2 µM)
Method in brief: as §1

VX-11e + Alpelisib = compound: CC1=CN=C(N=C1C2=CNC(=C2)C(=O)N[C@H](CO)C3=CC(=CC=C3)Cl)NC4=C(C=C(C=C4)F)Cl [VX-11e] + Cc1nc(NC(=O)N2CCC[C@H]2C(N)=O)sc1-c1ccnc(C(C)(C)C(F)(F)F)c1 [Alpelisib] (partner 2 µM)
Method in brief: as §1

VX-11e + Pictilisib = compound: CC1=CN=C(N=C1C2=CNC(=C2)C(=O)N[C@H](CO)C3=CC(=CC=C3)Cl)NC4=C(C=C(C=C4)F)Cl [VX-11e] + CS(=O)(=O)N1CCN(Cc2cc3nc(-c4cccc5[nH]ncc45)nc(N4CCOCC4)c3s2)CC1 [Pictilisib] (partner 1 µM)
Method in brief: as §1

| Cell Line | relative viability (VX-11e + Phenformin; first compound 0.04 µM) | relative viability (VX-11e + Phenformin; first compound 0.1265 µM) | relative viability (VX-11e + Phenformin; first compound 1.265 µM) | relative viability (VX-11e + Phenformin; first compound 4 µM) | relative viability (VX-11e + AZD7762; first compound 0.04 µM) | relative viability (VX-11e + AZD7762; first compound 0.1265 µM) | relative viability (VX-11e + AZD7762; first compound 0.4 µM) | relative viability (VX-11e + AZD7762; first compound 1.265 µM) | relative viability (VX-11e + AZD7762; first compound 4 µM) | relative viability (VX-11e + Alpelisib; first compound 0.1265 µM) | relative viability (VX-11e + Alpelisib; first compound 0.4 µM) | relative viability (VX-11e + Alpelisib; first compound 1.265 µM) | relative viability (VX-11e + Alpelisib; first compound 4 µM) | relative viability (VX-11e + Pictilisib; first compound 0.1265 µM) | relative viability (VX-11e + Pictilisib; first compound 0.4 µM) | relative viability (VX-11e + Pictilisib; first compound 1.265 µM) | relative viability (VX-11e + Pictilisib; first compound 4 µM) | relative viability (VX-11e + Phenformin; first compound 0.4 µM) | relative viability (VX-11e + Alpelisib; first compound 0.04 µM) | relative viability (VX-11e + Pictilisib; first compound 0.04 µM) |
| --- | --- | --- | --- | --- | --- | --- | --- | --- | --- | --- | --- | --- | --- | --- | --- | --- | --- | --- | --- | --- |
| NCI-H2126 | 0.48 | 0.512 | 0.567 | 0.467 | 0.844 | 0.972 | 0.795 | 1.01 | 0.861 | 0.755 | 0.747 | 0.68 | 0.578 | 0.518 | 0.393 | 0.384 | 0.392 | – | – | – |
| NCI-H2170 | 0.41 | 0.431 | 0.445 | 0.39 | 0.758 | 0.89 | 0.298 | 0.632 | 0.821 | 0.71 | 0.758 | 0.719 | 0.71 | 0.265 | 0.19 | 0.217 | 0.237 | 0.21 | 0.76 | 0.244 |
| NCI-H2347 | 0.462 | 0.488 | 0.43 | 0.211 | 0.834 | 0.722 | 0.551 | 0.501 | 0.375 | 0.991 | 1 | 0.618 | 0.379 | 0.662 | 0.491 | 0.36 | 0.298 | 0.206 | 1.15 | 0.813 |
| NCI-H2405 | 0.393 | 0.403 | 0.321 | 0.169 | 0.835 | 0.729 | 0.625 | 0.671 | 0.412 | 0.726 | – | 0.602 | 0.209 | 0.388 | – | 0.412 | 0.125 | 0.233 | 0.857 | 0.3 |
| NCI-H3122 | 0.408 | 0.358 | 0.335 | 0.254 | 1.13 | 1.13 | 0.353 | 0.933 | 0.577 | 0.753 | 0.566 | 0.672 | 0.329 | 0.57 | 0.255 | 0.406 | 0.212 | – | 0.652 | 0.633 |
| PC-3 [JPC-3] | 0.436 | 0.476 | 0.489 | 0.414 | 0.697 | 0.653 | 0.685 | 0.701 | 0.711 | 1.02 | 1 | 1.15 | 0.827 | 0.684 | 0.703 | 0.644 | 0.635 | 0.486 | 1.03 | 0.608 |
| PC-14 | 0.539 | 0.552 | 0.472 | 0.239 | 0.341 | 0.339 | 0.274 | 0.278 | 0.256 | 0.916 | 0.676 | 0.918 | 0.459 | 0.619 | 0.583 | 0.494 | 0.207 | 0.196 | 1.13 | 0.661 |
| RERF-LC-KJ | 0.403 | 0.427 | 0.372 | 0.315 | 0.572 | 0.876 | 0.498 | 0.903 | 0.839 | 0.739 | – | 0.829 | 0.551 | 0.521 | 0.614 | 0.641 | 0.484 | 0.408 | 1.47 | 0.63 |
